We go through 78 compounds from the METLIN SMRT retention time set (Domingo-Almenara et al. 2019).

The data set in a line: gradient 5% acetonitrile 3 min, to 50% in 2 min, to 85% in 15 min, held 3 min, 100 µL/min. The conditions noted are these: column: Zorbax Extend-C18 2.1 x 50 mm; eluents: water / acetonitrile, 0.1% formic acid. In short, it runs like this:
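Retention time was recorded from adduct peaks, which were picked computationally and each inspected manually. Pure standards ran in mixtures of ~100 molecules on HPLC coupled to a quadrupole time-of-flight mass spectrometer, in positive and negative ionization mode, through a Zorbax Extend-C18 column (2.1 × 50 mm, 1.8 μm) at 100 μL/min. Eluents were water and acetonitrile, each with 0.1% formic acid.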
`CCOc1cccc(-c2noc(Cn3ccnc3CC)n2)c1` showed an RP-LC retention time of 668 s.

Consider `COc1cccc(-c2nc(-c3ccc4oc(-c5ccccc5)nc4c3)no2)c1OC`, for which the RP-LC retention time was determined as 1410 s.

Consider `Cc1cc(C(=O)N2CCCC(c3nnc(-c4cccs4)o3)C2)no1` (stereo not drawn), for which the RP-LC retention time amounted to 694 s.

`O=C1CCSc2ccc(S(=O)(=O)N3CCN(c4ccccn4)CC3)cc2N1` returned an RP-LC retention time of 612 s.

Regarding `COc1ccc(OC)c(CNC(=O)C2=C3CCCN3c3ccc(F)cc3S2(=O)=O)c1`, the RP-LC retention time worked out at 872 s.

Take `CCc1noc(CN2N=C(C(=O)N3CCC(C)CC3)S(=O)(=O)c3ccc(C)cc32)n1`: the RP-LC retention time stood at 954 s.

On to `CCCn1c(C)cnc1C1CCN(S(=O)(=O)c2ccc3c(c2)CCC3)C1` (stereo not drawn), for which the RP-LC retention time amounted to 564 s.

`CC1CCCN(c2ccc(-c3noc(CN4CCc5ccccc5C4)n3)cn2)C1` (stereo not drawn): the RP-LC retention time amounted to 970 s.

`COc1ccc(NC(=O)N2CCC(n3c(-c4ccco4)nc4cccnc43)C2)cc1` (stereo not drawn) had an RP-LC retention time of 708 s.

Consider `CC(C)CN1CCN(C(=O)c2cn3ccnc(-c4ccccc4)c3n2)CC1`, for which the RP-LC retention time amounted to 606 s.

Regarding `O=C(NCc1ccc(N2CCN(c3ccccn3)CC2)cc1)c1ccoc1`, the RP-LC retention time was determined as 624 s.

Regarding `Cc1c(CNCCN(C)C)c(C(=O)O)c(C)n1Cc1ccccc1F`, the RP-LC retention time is 591 s.

`Cc1cc(C)c(S(=O)(=O)NCCn2c(C)cnc2C2CCC2)cc1C`: the RP-LC retention time was determined as 696 s.

Take `O=C(C1CCCN(c2ncnc3c2nc2n3CCCCC2)C1)N1CCC(N2CCCCC2)CC1` (stereo not drawn): the RP-LC retention time was determined as 590 s.

For the compound `Cc1ccn2c(NC(=O)COc3ccc(Cl)cc3)c(-c3ccc(F)cc3)nc2c1`, the RP-LC retention time is 759 s.

Consider `Brc1ccc(-c2noc(Cc3nc(-c4ccccc4)cs3)n2)cc1`, for which the RP-LC retention time worked out at 1350 s.

In turn, `O=S(=O)(c1cc(-c2noc(C3CCCC3)n2)cs1)N1CCC2(CC1)OCCO2` displayed an RP-LC retention time of 1140 s.

As for `CC(C)c1cccc(Nc2nc3ccncc3n(Cc3ccccc3)c2=O)c1`, the RP-LC retention time is 911 s.

Take `CC1=C(c2ccc(C)cc2)S(=O)(=O)N=C1N1CCC(NC(=O)c2sccc2C)CC1`: the RP-LC retention time is 596 s.

On to `COc1ccc(NC2=NC(C)(CO)CS2)cc1` (stereo not drawn), for which the RP-LC retention time came out at 638 s.

`Cc1ccccc1NC(=O)C1C(=O)N(C)C2(C)CC1c1ccccc1O2` (stereo not drawn) showed an RP-LC retention time of 991 s.

In turn, `CN(C)C(=O)c1cccnc1OC1CCN(C(=O)c2ccc(Br)o2)C1` (stereo not drawn) came in with an RP-LC retention time of 663 s.

The compound `CCOc1cccc(CNc2c(-c3nc(C)no3)cnc3nc(C)ccc23)c1` displayed an RP-LC retention time of 724 s.

For `O=C(NCc1ccc2c(c1)OCO2)C1CCN(c2cnc3nccnc3c2)CC1`, the RP-LC retention time was found to be 659 s.

In turn, `Cc1cc(-c2nnc(-c3ccc(F)cc3)o2)c(C)n1CC(=O)NCc1ccc2c(c1)OCO2` registered an RP-LC retention time of 916 s.

The compound `Cc1sc2cc(C(=O)N3CCN(c4ccccc4)CC3)[nH]c2c1CN1CCOCC1` showed an RP-LC retention time of 710 s.

`CCN1C(=O)CCc2cc(NS(=O)(=O)c3ccc4c(c3)OCCO4)ccc21` showed an RP-LC retention time of 794 s.

On to `CSc1nnc(-c2nn(C)c3c2CN(C(=O)c2cccc(F)c2)CC3)n1C`, for which the RP-LC retention time was 693 s.

Take `CCOc1ccccc1-c1nc(CN(c2ccccc2OC)S(=O)(=O)c2ccccc2C)c(C)o1`: the RP-LC retention time was 1250 s.

`CCOc1ccccc1NC(=O)C1CCCN(S(=O)(=O)c2ccc(OC)c(C)c2)C1` (stereo not drawn) registered an RP-LC retention time of 1080 s.

Regarding `Cc1ccc(CNC(=O)C2CCN(C(=O)c3nn(C)c4c3CN(C(=O)C(C)C)CC4)CC2)cc1`, the RP-LC retention time came out at 702 s.

`CCOC(=O)C1CCCN(S(=O)(=O)c2ccc(Cl)c(-c3nnc(-c4ccccc4)o3)c2)C1` (stereo not drawn) showed an RP-LC retention time of 1120 s.

In turn, `Clc1ccc(-c2csc(N3CCN(c4nc(-c5ccccc5)cs4)CC3)n2)cc1` showed an RP-LC retention time of 739 s.

Regarding `c1ccc(CN2CCN(c3c4c(nc5nc(-c6ccccc6)nn35)CCCC4)CC2)cc1`, the RP-LC retention time was determined as 668 s.

The compound `Cc1ccccc1N1CCN(C(=O)Cn2c(=O)c3nnc(C)n3c3ncccc32)CC1` returned an RP-LC retention time of 793 s.

In turn, `CCc1ccc(NC(=O)Cn2c(=O)n(-c3ccccc3)c(=O)c3c2cc(C)n3C)cc1` displayed an RP-LC retention time of 886 s.

`COc1ccc(C(=O)NCc2ccc3c(c2)ncn3C(C)C)cn1` gave an RP-LC retention time of 597 s.

In turn, `Cn1c(-c2cccs2)c(CNC(=O)Nc2ccc3c(c2)OCO3)c2ccccc21` displayed an RP-LC retention time of 1010 s.

`CSc1ccc(CC(=O)Nc2nnc(-c3cc(C)n(C)n3)o2)cc1` had an RP-LC retention time of 669 s.

In turn, `CCn1ncc(CN2CC(c3nc(CCOCc4ccccc4)no3)C2)c1C` came in with an RP-LC retention time of 662 s.

Take `Nc1nc2c(cnn2CCc2ccccc2)c2nc(-c3ccco3)nn12`: the RP-LC retention time is 880 s.

For `O=C(NCc1ccccc1C(F)(F)F)C1CCN(c2cc(N3CCOCC3)ncn2)CC1`, the RP-LC retention time stood at 670 s.

For `CCSc1ccccc1C(=O)N1CCN(c2ccc(-c3ccccn3)nn2)CC1`, the RP-LC retention time turned out to be 649 s.

In the case of `COc1ccc(NC(=O)Cn2nc(N3CCSCC3)c3ccccc3c2=O)cc1`, the RP-LC retention time worked out at 1180 s.

For the compound `O=C(Nc1nnc(-c2cccs2)o1)c1ccc([N+](=O)[O-])o1`, the RP-LC retention time was 677 s.

`Cc1ccc(S(=O)(=O)N2CCN(CCc3cn(C)c4ncccc34)CC2)cc1Cl`: the RP-LC retention time was 686 s.

For `CCOC(=O)c1c(NC(=O)C2CCN(S(C)(=O)=O)CC2)sc2ccccc12`, the RP-LC retention time is 979 s.

In turn, `CSc1cccc(-n2ccc(=O)c(-c3nc(-c4ccccc4)no3)n2)c1` displayed an RP-LC retention time of 971 s.

Turning to `COc1ccc(N2C(=O)C3N=NN(Cc4nc(-c5ccc6c(c5)OCO6)no4)C3C2=O)cc1` (stereo not drawn), the RP-LC retention time was determined as 911 s.

Take `COc1ccc(CCNC(=O)C(=O)NCc2ccc(F)cc2)cc1OC`: the RP-LC retention time was determined as 770 s.

On to `COc1ccccc1N1CCN(c2cc(SCC(=O)Nc3ccc(C(C)C)cc3)ncn2)CC1`, for which the RP-LC retention time is 1140 s.

`COC(=O)c1ccc(NC(=O)N(C)CCc2noc(C3CCCCC3)n2)cc1` yielded an RP-LC retention time of 906 s.

On to `O=C(NCCN1CCN(c2ccc(Cl)cc2)CC1)C(=O)Nc1cc(F)ccc1F`, for which the RP-LC retention time is 613 s.

For the compound `CCOc1ccc(C(=O)NCC(=O)Nc2nc3ccccc3[nH]2)cc1OCC`, the RP-LC retention time is 640 s.

As to `O=C(NCCCN1CCCC1=O)c1c(OCC2CC2)cc(=O)n2c1CCCCC2`, the RP-LC retention time was determined as 602 s.

As to `O=C(C1CCN(c2ncccc2-c2nc(-c3cccc(F)c3)no2)CC1)N1CCC2(CC1)OCCO2`, the RP-LC retention time stood at 1010 s.

In the case of `CCOC(=O)c1ccc(N2C=C(C#N)S(=O)(=O)c3ccccc32)cc1`, the RP-LC retention time amounted to 917 s.

Compound `Cc1cc2nn(CC(=O)Nc3ccccc3)c(=O)n2c(-c2ccccc2)n1` had an RP-LC retention time of 769 s.

Regarding `COc1cc(OC)c(NC(=O)c2cc3c(=O)n(CC(C)C)ccc3n2C)cc1Cl`, the RP-LC retention time amounted to 924 s.

`COc1cc2c(cc1OC)C(C(=O)N1CCOCC1)C(c1ccc(SC)cc1)N(C)C2=O` (stereo not drawn) displayed an RP-LC retention time of 726 s.

For the compound `N#Cc1ccc(C(=O)NCc2cnoc2-c2ccc(F)cc2)cc1`, the RP-LC retention time was 848 s.

Turning to `O=C(NCc1ccccn1)c1scc(-c2ccc(F)cc2)c1-n1cccc1`, the RP-LC retention time was found to be 821 s.

In turn, `Cc1nnc2cc(N3CCN(S(=O)(=O)c4ccc(C(C)(C)C)cc4)CC3)cnn12` came in with an RP-LC retention time of 824 s.

For the compound `COc1cccc(N2CCN(C(=O)c3cc4c(-c5cccs5)nn(-c5ccccc5)c4n3C)CC2)c1`, the RP-LC retention time was found to be 1180 s.

The compound `O=C(O)c1cnc(N2CCOCC2)nc1-c1ccc(Cl)cc1` had an RP-LC retention time of 823 s.

`CCc1cccc(NS(=O)(=O)c2c(C)sc(C)c2-c2cc(C)[nH]n2)c1` had an RP-LC retention time of 1130 s.

On to `COc1ccc(-c2noc(CN3N=NC4C(=O)N(c5ccc(OC)c(OC)c5)C(=O)C43)n2)c(OC)c1` (stereo not drawn), for which the RP-LC retention time worked out at 800 s.

As to `CC(C)(C)NCC(O)c1cc(Cl)c(N)c(C(F)(F)F)c1` (stereo not drawn), the RP-LC retention time was determined as 708 s.

Consider `CN(C)c1nc2cc(C(=O)N3CCOCC3)sc2n1-c1ccccc1`, for which the RP-LC retention time was determined as 614 s.

In turn, `CCn1ccc(C(=O)Nc2cccc(OCc3nnc(-c4ccc(OC)cc4)o3)c2)n1` returned an RP-LC retention time of 891 s.

`CC1=C(C(=O)N(CC(=O)NCCc2ccccc2)c2ccc(Cl)cc2)SCCO1` registered an RP-LC retention time of 956 s.

Compound `CSc1cccc(NC(=O)Cn2c(C)cc(-c3nnc(C)o3)c2C)c1` came in with an RP-LC retention time of 790 s.

Take `O=C(NCc1cccnc1)C1CN(S(=O)(=O)c2cccnc2)CC12CCCCC2` (stereo not drawn): the RP-LC retention time was found to be 595 s.

For `CC1=C(c2ccccc2)S(=O)(=O)N=C1N1CCCN(C(=O)C2CC2)CC1`, the RP-LC retention time is 991 s.

The compound `CS(=O)(=O)N1CCN(Cc2nnnn2-c2ccc(Cl)cc2)CC1` had an RP-LC retention time of 719 s.

The compound `CN1CCN(C(=O)c2nnc(-c3ccc(S(=O)(=O)N4CCCC4)cc3)o2)CC1` came in with an RP-LC retention time of 594 s.

On to `CCCOc1nn(CCC)cc1C(=O)N1CCCC1`, for which the RP-LC retention time is 700 s.

The compound `CCN1C(=O)COc2ccc(-c3csc(NC(=O)CCc4ccc(C)cc4)n3)cc21` had an RP-LC retention time of 1070 s.
